Experimental findings from patent US20250304596A1, “PYRAZINE DERIVATIVES AND USES THEREOF” (FOGHORN THERAPEUTICS INC., priority 2022, published 2025) are described below.

Assay [1] addresses T1, HiBit-BRM fusion protein (Homo sapiens, UniProt P51531).
T1 construct: expressed in transfected cells
The assay can be described thus: HiBiT-BRM cell-based degradation assay (Nano-Glo HiBiT Lytic Detection, 24 h). Particulars: stable HeLa cell line expressing HiBiT-BRM; for DC50: read-out: BRM HiBit Degradation IC50. The method, then: (§1) Procedure: A stable HeLa cell line expressing HiBiT-BRM was generated. On day 0, 5000 cells were seeded in 40 μL of media into each well of 384-well cell culture plates. On day 1, cells were treated with 120 nL DMSO or 120 nL of 3-fold serially DMSO-diluted compounds (10 points in duplicate with 30 μM as final top dose). Subsequently plates were incubated for 24 h in a standard tissue culture incubator and equilibrated at room temperature for 15 minutes. Nano-Glo HiBiT Lytic Detection System (Promega N3050) reagent was freshly prepared and 20 ul was added to each well. Upon addition of this LgBit-containing reagent, the HiBiT and LgBiT proteins associate to form the luminescent NanoBiT Iuciferase. The plates were shaken for 10 minutes at room temperature and the bioluminescence read using an EnVision plate reader (PerkinElmer).
(§2) The degradation % was calculated using the following formula: % degradation=100%-100%×(LumSample−LumLC)/(LumHC−LumLC). DMSO treated cells are employed as High Control (HC) and 2 μM of a known BRM/BRG1 degrader standard treated cells are employed as Low Control (LC).

Assay [2] has as its target T2, HiBit-BRG1 fusion protein (Homo sapiens, UniProt P51532).
T2 construct: expressed in transfected cells
Description: HiBiT-BRG1 cell-based degradation assay (Nano-Glo HiBiT Lytic Detection, 24 h). Particulars: stable HeLa cell line expressing HiBit-BRG1 and LgBit; for Dmax: read-out: BRG1 HiBit Degradation Maximum (%); for DC50: read-out: BRMG1 HiBit Degradation IC50. The protocol:
as §1
For measurement of BRG1 degradation, a stable HeLa cell line expressing HiBit-BRG1 and LgBit was generated. The same protocol as above was then followed.
as §2

SMILES strings stand for the structures.

T1 sequence (P51531 whole entry, the tested form may be a part): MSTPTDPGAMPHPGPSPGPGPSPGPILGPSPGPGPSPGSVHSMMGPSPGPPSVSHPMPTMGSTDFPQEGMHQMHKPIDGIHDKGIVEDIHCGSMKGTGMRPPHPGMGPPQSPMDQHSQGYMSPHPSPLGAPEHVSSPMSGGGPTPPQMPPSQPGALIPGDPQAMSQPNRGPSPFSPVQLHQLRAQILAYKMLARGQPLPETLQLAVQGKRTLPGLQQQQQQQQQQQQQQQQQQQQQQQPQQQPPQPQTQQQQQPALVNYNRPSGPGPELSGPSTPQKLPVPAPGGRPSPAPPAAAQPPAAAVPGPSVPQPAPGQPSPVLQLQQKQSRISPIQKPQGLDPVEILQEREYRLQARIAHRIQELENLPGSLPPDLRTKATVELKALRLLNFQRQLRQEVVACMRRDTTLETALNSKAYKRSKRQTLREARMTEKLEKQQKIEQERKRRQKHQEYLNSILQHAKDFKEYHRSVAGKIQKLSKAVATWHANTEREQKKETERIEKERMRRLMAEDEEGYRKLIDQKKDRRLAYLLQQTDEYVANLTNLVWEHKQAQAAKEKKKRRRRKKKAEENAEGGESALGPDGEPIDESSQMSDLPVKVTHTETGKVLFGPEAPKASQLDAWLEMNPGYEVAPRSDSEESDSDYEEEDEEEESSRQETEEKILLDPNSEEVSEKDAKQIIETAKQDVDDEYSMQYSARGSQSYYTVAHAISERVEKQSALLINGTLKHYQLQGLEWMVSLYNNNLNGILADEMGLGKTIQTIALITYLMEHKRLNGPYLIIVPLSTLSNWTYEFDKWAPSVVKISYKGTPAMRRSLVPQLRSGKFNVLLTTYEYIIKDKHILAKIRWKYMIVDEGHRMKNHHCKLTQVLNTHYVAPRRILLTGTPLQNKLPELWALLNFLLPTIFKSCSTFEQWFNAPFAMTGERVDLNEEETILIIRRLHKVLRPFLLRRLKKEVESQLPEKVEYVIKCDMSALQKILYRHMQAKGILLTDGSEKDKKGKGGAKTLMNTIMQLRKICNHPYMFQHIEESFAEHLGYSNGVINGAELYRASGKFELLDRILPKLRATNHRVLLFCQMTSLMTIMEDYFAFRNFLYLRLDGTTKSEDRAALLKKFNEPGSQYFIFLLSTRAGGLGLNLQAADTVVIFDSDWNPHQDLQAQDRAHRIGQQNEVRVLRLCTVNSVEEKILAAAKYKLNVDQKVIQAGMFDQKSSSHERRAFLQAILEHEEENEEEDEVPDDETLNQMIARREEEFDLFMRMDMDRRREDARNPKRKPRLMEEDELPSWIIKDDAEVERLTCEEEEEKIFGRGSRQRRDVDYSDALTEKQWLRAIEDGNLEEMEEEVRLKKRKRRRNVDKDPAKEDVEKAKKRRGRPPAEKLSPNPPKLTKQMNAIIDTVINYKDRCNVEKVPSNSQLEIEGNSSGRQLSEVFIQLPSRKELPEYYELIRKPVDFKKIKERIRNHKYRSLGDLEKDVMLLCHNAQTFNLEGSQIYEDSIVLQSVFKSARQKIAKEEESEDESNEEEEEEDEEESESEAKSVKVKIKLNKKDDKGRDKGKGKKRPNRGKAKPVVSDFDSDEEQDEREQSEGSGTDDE
T2 sequence (P51532 whole entry, the tested form may be a part): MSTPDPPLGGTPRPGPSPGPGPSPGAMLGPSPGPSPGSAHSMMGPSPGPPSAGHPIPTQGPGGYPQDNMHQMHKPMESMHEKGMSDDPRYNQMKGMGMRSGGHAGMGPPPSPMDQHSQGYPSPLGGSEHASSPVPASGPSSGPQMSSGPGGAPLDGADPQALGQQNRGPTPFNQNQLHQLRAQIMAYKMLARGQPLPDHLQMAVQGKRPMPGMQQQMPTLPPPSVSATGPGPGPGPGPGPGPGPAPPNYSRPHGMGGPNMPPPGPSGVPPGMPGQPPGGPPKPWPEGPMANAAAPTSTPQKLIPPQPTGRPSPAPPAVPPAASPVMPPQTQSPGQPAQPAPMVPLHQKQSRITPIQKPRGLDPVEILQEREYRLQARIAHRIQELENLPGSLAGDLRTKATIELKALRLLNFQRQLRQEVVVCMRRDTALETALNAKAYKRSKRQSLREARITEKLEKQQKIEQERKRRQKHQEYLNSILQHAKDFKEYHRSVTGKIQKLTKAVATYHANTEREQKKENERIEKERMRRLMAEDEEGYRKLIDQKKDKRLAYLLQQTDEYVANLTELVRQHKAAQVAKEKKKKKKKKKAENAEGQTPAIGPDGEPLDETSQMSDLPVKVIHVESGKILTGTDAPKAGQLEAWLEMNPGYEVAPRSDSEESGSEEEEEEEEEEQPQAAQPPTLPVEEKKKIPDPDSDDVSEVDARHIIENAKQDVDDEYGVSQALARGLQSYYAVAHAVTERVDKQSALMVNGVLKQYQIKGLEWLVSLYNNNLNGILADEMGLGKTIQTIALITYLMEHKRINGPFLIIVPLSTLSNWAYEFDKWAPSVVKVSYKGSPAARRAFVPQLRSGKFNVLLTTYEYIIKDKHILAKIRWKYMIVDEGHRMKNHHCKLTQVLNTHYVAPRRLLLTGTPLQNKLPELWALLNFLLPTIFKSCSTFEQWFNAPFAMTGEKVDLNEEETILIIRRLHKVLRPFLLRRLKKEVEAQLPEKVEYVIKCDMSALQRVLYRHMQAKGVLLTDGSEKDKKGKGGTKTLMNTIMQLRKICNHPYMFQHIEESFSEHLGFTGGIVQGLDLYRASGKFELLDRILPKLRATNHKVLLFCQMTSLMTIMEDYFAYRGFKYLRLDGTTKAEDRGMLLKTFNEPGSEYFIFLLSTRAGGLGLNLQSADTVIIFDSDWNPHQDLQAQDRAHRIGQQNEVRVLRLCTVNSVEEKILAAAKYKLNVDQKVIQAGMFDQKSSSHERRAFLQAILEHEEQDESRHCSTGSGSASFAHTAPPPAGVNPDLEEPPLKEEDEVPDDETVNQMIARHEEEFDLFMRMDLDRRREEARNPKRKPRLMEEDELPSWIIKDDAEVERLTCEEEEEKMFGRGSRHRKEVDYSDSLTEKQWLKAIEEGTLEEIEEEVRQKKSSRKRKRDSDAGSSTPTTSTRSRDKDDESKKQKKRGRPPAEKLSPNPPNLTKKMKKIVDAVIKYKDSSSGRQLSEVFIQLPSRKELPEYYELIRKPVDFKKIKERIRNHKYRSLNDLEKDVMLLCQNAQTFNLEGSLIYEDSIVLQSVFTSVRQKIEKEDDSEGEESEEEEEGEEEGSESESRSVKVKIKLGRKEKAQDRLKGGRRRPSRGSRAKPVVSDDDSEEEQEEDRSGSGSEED

With `Cc1ncsc1-c1ccc([C@H](C)NC(=O)[C@@H]2C[C@@H](O)CN2C(=O)[C@@H](c2cc(N3CC4(CCC(c5cc6cc(-c7ccccc7O)nnc6s5)CC4)C3)no2)C(C)C)cc1` [Compound 89, (2S,4R)-4-hydroxy-1-((R)-2-(3-(7-(3-(2-hydroxyphenyl)thieno[2,3-c]pyridazin-6-yl)-2-azaspiro[3.5]nonan-2-yl)isoxazol-5-yl)-3-methylbutanoyl)-N-((S)-1-(4-(4-methylthiazol-5-yl)phenyl)ethyl)pyrrolidine-2-carboxamide], in assay [1], the “BRM HiBit Degradation Maximum (%)” value was “A (“A” indicates maximum degradation ≥75%)” and the DC50 is under 10 nM. In assay [2], the Dmax was over 75% and the DC50 is over 10 nM.

As to `Cc1ncsc1-c1ccc([C@H](C)NC(=O)[C@@H]2C[C@@H](O)CN2C(=O)[C@@H](c2cc(-c3cnc(N4CC[C@@H](c5sc6nnc(-c7ccccc7O)cc6c5C)[C@H](C)C4)nc3)no2)C(C)C)cc1` [Compound 25, (2S,4R)-4-hydroxy-1-((R)-2-(3-(2-((3S,4R)-4-(3-(2-hydroxyphenyl)-5-methylthieno[2,3-c]pyridazin-6-yl)-3-methylpiperidin-1-yl)pyrimidin-5-yl)isoxazol-5-yl)-3-methylbutanoyl)-N-((S)-1-(4-(4-methylthiazol-5-yl)phenyl)ethyl)pyrrolidine-2-carboxamide], in assay [1], the “BRM HiBit Degradation Maximum (%)” value is recorded as “A (“A” indicates maximum degradation ≥75%)” and the DC50 was over 10 nM. Moreover, in assay [2], the Dmax was under 50% and the DC50 is over 1000 nM.

Turning to `Cc1ncsc1-c1ccc([C@H](C)NC(=O)[C@@H]2C[C@@H](O)CN2C(=O)[C@@H](c2cc(-c3cnc(N4CCC(c5cc6cc(-c7ccccc7O)nnc6s5)CC4)nc3)no2)C(C)C)cc1` [Compound 54, (2S,4R)-4-hydroxy-1-((R)-2-(3-(2-(4-(3-(2-hydroxyphenyl)thieno[2,3-c]pyridazin-6-yl)piperidin-1-yl)pyrimidin-5-yl)isoxazol-5-yl)-3-methylbutanoyl)-N-((S)-1-(4-(4-methylthiazol-5-yl)phenyl)ethyl)pyrrolidine-2-carboxamide], in assay [1], the “BRM HiBit Degradation Maximum (%)” value is “A (“A” indicates maximum degradation ≥75%)” and the DC50 is under 10 nM. Moreover, in assay [2], the Dmax was under 50% and the DC50 was over 1000 nM.

Consider `Cc1cc(-c2cc([C@H](C(=O)N3C[C@H](O)C[C@H]3C(=O)N[C@@H](C)c3ccc(-c4scnc4C)cc3)C(C)C)on2)cnc1N1CC[C@@H](c2sc3nnc(-c4ccccc4O)cc3c2C)C1` [Compound 101, (2S,4R)-4-hydroxy-1-((R)-2-(3-(6-((R)-3-(3-(2-hydroxyphenyl)-5-methylthieno[2,3-c]pyridazin-6-yl)pyrrolidin-1-yl)-5-methylpyridin-3-yl)isoxazol-5-yl)-3-methylbutanoyl)-N-((S)-1-(4-(4-methylthiazol-5-yl)phenyl)ethyl)pyrrolidine-2-carboxamide], for which, in assay [1], the “BRM HiBit Degradation Maximum (%)” value is on record as “A (“A” indicates maximum degradation ≥75%)” and the DC50 was over 10 nM. In assay [2], the Dmax is under 50%.

For the compound `Cc1ncsc1-c1ccc([C@H](C)NC(=O)[C@@H]2C[C@@H](O)CN2C(=O)[C@@H](c2cc(N3CC4(C3)CN(c3cc5cc(-c6ccccc6O)nnc5s3)C4)no2)C(C)C)cc1` [Compound 68, (2S,4R)-4-hydroxy-1-((R)-2-(3-(6-(3-(2-hydroxyphenyl)thieno[2,3-c]pyridazin-6-yl)-2,6-diazaspiro[3.3]heptan-2-yl)isoxazol-5-yl)-3-methylbutanoyl)-N-((S)-1-(4-(4-methylthiazol-5-yl)phenyl)ethyl)pyrrolidine-2-carboxamide], in assay [1], the “BRM HiBit Degradation Maximum (%)” value is recorded as “A (“A” indicates maximum degradation ≥75%)” and the DC50 was under 10 nM. For the same compound, the Dmax in assay [2] was under 50%.

As for `COc1nc(N2CCC(c3sc4nnc(-c5ccccc5O)cc4c3C)CC2)ccc1-c1cc([C@H](C(=O)N2C[C@H](O)C[C@H]2C(=O)N[C@@H](C)c2ccc(-c3scnc3C)cc2)C(C)C)on1` [Compound 20, (2S,4R)-4-hydroxy-1-((R)-2-(3-(6-(4-(3-(2-hydroxyphenyl)-5-methylthieno[2,3-c]pyridazin-6-yl)piperidin-1-yl)-2-methoxypyridin-3-yl)isoxazol-5-yl)-3-methylbutanoyl)-N-((S)-1-(4-(4-methylthiazol-5-yl)phenyl)ethyl)pyrrolidine-2-carboxamide], in assay [1], the “BRM HiBit Degradation Maximum (%)” value is listed as “A (“A” indicates maximum degradation ≥75%)” and the DC50 is over 10 nM. Moreover, in assay [2], the Dmax is under 50% and the DC50 was over 1000 nM.

In the case of `Cc1ncsc1-c1ccc([C@H](C)NC(=O)[C@@H]2C[C@@H](O)CN2C(=O)[C@@H](c2cc(C#Cc3sc4nnc(-c5ccccc5O)cc4c3C)no2)C(C)C)cc1` (single isomer, unassigned) [Compound 37], in assay [1], the “BRM HiBit Degradation Maximum (%)” value is listed as “A (“A” indicates maximum degradation ≥75%)” and the DC50 is over 100 nM. Further, in assay [2], the Dmax is over 50% and the DC50 was over 1000 nM.

For the compound `Cc1ncsc1-c1ccc([C@H](C)NC(=O)[C@@H]2C[C@@H](O)CN2C(=O)[C@@H](c2cc(N3CC4(CCC(c5sc6nnc(-c7ccccc7O)cc6c5C)CC4)C3)no2)C(C)C)cc1` [Compound 88, (2S,4R)-4-hydroxy-1-((R)-2-(3-(7-(3-(2-hydroxyphenyl)-5-methylthieno[2,3-c]pyridazin-6-yl)-2-azaspiro[3.5]nonan-2-yl)isoxazol-5-yl)-3-methylbutanoyl)-N-((S)-1-(4-(4-methylthiazol-5-yl)phenyl)ethyl)pyrrolidine-2-carboxamide], in assay [1], the “BRM HiBit Degradation Maximum (%)” value was “A (“A” indicates maximum degradation ≥75%)” and the DC50 was under 10 nM. Further, in assay [2], the Dmax was over 75% and the DC50 is over 10 nM.

With `Cc1cc(N2CCC(c3sc4nnc(-c5ccccc5O)cc4c3C)CC2)ncc1-c1cc([C@H](C(=O)N2C[C@H](O)C[C@H]2C(=O)N[C@@H](C)c2ccc(-c3scnc3C)cc2)C(C)C)on1` [Compound 38, (2S,4R)-4-hydroxy-1-((R)-2-(3-(6-(4-(3-(2-hydroxyphenyl)-5-methylthieno[2,3-c]pyridazin-6-yl)piperidin-1-yl)-4-methylpyridin-3-yl)isoxazol-5-yl)-3-methylbutanoyl)-N-((S)-1-(4-(4-methylthiazol-5-yl)phenyl)ethyl)pyrrolidine-2-carboxamide], in assay [1], the “BRM HiBit Degradation Maximum (%)” value is “A (“A” indicates maximum degradation ≥75%)” and the DC50 was under 10 nM. Further, in assay [2], the Dmax was under 50% and the DC50 is over 1000 nM.

Consider `Cc1ncsc1-c1ccc([C@H](C)NC(=O)[C@@H]2C[C@@H](O)CN2C(=O)[C@@H](c2cc(-c3cnc(N4CCN(c5cc6nnc(-c7ccccc7O)cc6s5)CC4)nc3)no2)C(C)C)cc1` [Compound 9, (2S,4R)-4-hydroxy-1-{2-[3-(2-{4-[3-(2-hydroxyphenyl)thieno[3,2-c]pyridazin-6-yl]piperazin-1-yl}pyrimidin-5-yl)-1,2-oxazol-5-yl]-3-methylbutanoyl}-N-[(1S)-1-[4-(4-methyl-1,3-thiazol-5-yl)phenyl]ethyl]pyrrolidine-2-carboxamide], for which, in assay [1], the “BRM HiBit Degradation Maximum (%)” value is listed as “A (“A” indicates maximum degradation ≥75%)” and the DC50 was under 10 nM. Moreover, in assay [2], the Dmax was over 75% and the DC50 was over 10 nM.
